Where a name gives a salt, the structure may show the parent alone.
Key:
[1] = Water solubility test in distilled water
Experimental: 5 mg mangiferin powder which is weighed up accurately is put into 50 ml distilled water, the solution is shaked acutely 30 second every 5 minutes.
100 mg mangiferin calcium powder which is obtained by the method for preparation of example 8 and weighed up accurately is put into 50 ml distilled water, the solution is shaked acutely 30 second every 5 minutes.

[2] = Pharmacokinetics of mangiferin and mangiferin calcium after oral administration; format: in vivo, rats; conditions: rat, in vivo, po, 100 mg/kg
Experimental: 1, The Confect of Drug Solution
Mangiferin is suspended in Carboxymethyl cellulose sodium solution which concentration is one percent; the mangiferin concentration is 10 mg/mL, which is sample A.
All rats were fasted for 16 hours, free drinking water. The rats are oral administrated separately sample A and sample B, which dose is 100 mg/kg. The rats were taken whole blood in 5 minutes before oral administrated and 15 min, 30 min, 45 min, 60 min, 90 min, 120 min, 180 min, 240 min, 300 min, 360 min, 480 min after oral administrated. Serum is separated from these blood samples.
Serum Samples are extracted accurately 0.2 ml into centrifuge tubes separately; then 40 μL cold trichloroacetic acid solution which concentration is ten percent is added into centrifuge tubes separately. The samples are whorled 3 minutes; then centrifuged 12000 r/min for 10 minutes, 120 μl the up layer solution are extracted from centrifuge tubes and put into sample bottles separately. All the samples are detected by HPLC.
Apparatus: Angilent 1100 HPLC (American Agilent Co.), include G1312A dual pump G1313A Auto-Sampler.
Chromatographic column: discover ODS column (250 mm×6 mm, 5 μm);
The mobile phase: Acetonitrile—0.1% H3PO4 water (13:87 v/v)
Velocity of flow: 1.0 ml/min
Detection Wavelength: 254 nm.
Column temperature: 30° C.

[3] = tested on: STZ rats; assay: Efficacy in STZ model (plasma glucose, insulin, lipids, glucose clamp); format: in vivo, wistar rats; conditions: for Glucose infusion rate: glucose clamp; for FFA / GLU / INS / TG: high fat chow
Experimental: Rosiglitazone Hydrochloride tablets were purchased from Zhejiang wanma pharmaceutical Co., Ltd. Mangiferin and mangiferin calcium salts were suspended with 3% sodium carboxymethyl cellulose.
Normal female wistar rats (SPF, 3 months age, 180-200 g) were purchased from Hainan provincial peoples hospital experimental Animal Center. The animals were kept in a room temperature (25˜28° C.) with free access of food and water. A light-dark cycle (6 a.m and 6 p.m) was strictly enforced. High fat chow is composed of 55% basic chow, 2% protein, 16% fat, 27% white sugar.
Model: After the rats were fasted for 12 hours, the rats are injected 30-35 mg/kg streptozotocin (STZ) solution once by tail vein. STZ solution is prepared to 2% concentration with […], pH 4.4 citrate-sodium citrate buffer before use. The model rats were weighed, taked out tail vein blood, tested blood glucose when the Model is done after 14 days after fasting for 12 hours, then injected 20% glucose solution ([…]) by intraperitoneal, determined blood glucose in 0.5 h, 1 h, 2 h. The rats whose glucose tolerance is abnormal were brought into experiments. Normal wistar rats were fed normal chow, model rats were fed high fat chow.
Experimental group:normal wistar rats group (n=10); after Diabetes model is succeed, the rats were randomly divided into 7 groups: Diabetes model group (n=10); mangiferin groups (20, 40, 80 mg/kg, each 10 rats); mangiferin calcium groups (10, 20, 40 mg/kg, each 10 rats); Rosiglitazone Hydrochloride group [3 mg/kg, n=10]. Test samples or vehicle control was given orally for 8 weeks. Diabetes model group and normal group were given vehicle.
Determination of insulin sensitivity (Glucose infusion rate): Using glucose clamp technique, in accordance with Konglingdong'method ? KONG Ling-dong, ZHU Liang-zheng, SONG Ju-min, etc al. Intervention Effects of Tiaozhi Jiangtang Tablet on Insulin Resistance in Rats with Diabetes Mellitus Type 2.
Determination of plasma glucose and lipid: Rats were taken whole blood after killed, then serum was separated, determined plasma glucose (GLU), insulin (INS), triglycerides (TG) and free fatty acids (FFA).
GLU and TG levels were determined using GF-D800 semi-auto chemist which was purchased from Shandong Gaomi Caihong Analytical Instrument Co., Ltd. Free fatty acids were determined using copper colorimetric determination. The kits for Determination of free fatty acids were purchased from Nanjing Jiancheng Bioengineering Institute. Insulin: radioimmunoassay (RIA), γ counter counts. insulin RIA Kit was purchased from Shandong Weifang City three-dimensional (3V) Biological company.
Statistics: The results have been calculated as mean±SD ( x±SD) and compareisons of the data have been done by t-test.

[4] = tested on: GK rats; assay: Efficacy in GK model (plasma glucose, insulin, lipids); format: in vivo, Goto-Kakizaki rats (GK)
Experimental: Rosiglitazone Hydrochloride tablets were purchased from Zhejiang wanma pharmaceutical Co., Ltd. Mangiferin and mangiferin calcium were suspended with 3% sodium carboxymethyl cellulose before use.
Goto-Kakizaki rats (GK) (16 weeks age, ♀ ♂) were purchased from Shanghai SLAC laboratory animal Co., Ltd. The animals were kept in IVC cages with temperature (22° C.). There are two rats in each cage.
Experimental group: GK rats group (n=10); mangiferin groups (20, 40, 80 mg/kg, each 10 rats); mangiferin calcium groups (10, 20, 40 mg/kg, each 10 rats); Rosiglitazone Hydrochloride group [3 mg/kg, n=10]. Test samples or vehicle control was given orally for 30 days. GK rats group were given vehicle.
The blood specimens were taken by abdominal aorta at the end of the test. Plasma glucose (GLU), insulin (INS), triglycerides (TG), total cholesterol (TC), high density lipoprotein (HDL), low density lipoprotein (LDL) were determined
GLU, TC, TG, HDL and LDL levels were determined using GF-D800 semi-auto chemist which was purchased from Shandong Gaomi Caihong Analytical Instrument Co., Ltd. Insulin: radioimmunoassay (RIA), γ counter counts. insulin RIA Kit was purchased from Shandong Weifang City three-dimensional (3V) Biological company.
Statistics: The results have been calculated as mean±SD ( x±SD) and comparisons of the data have been done by t-test.

For `O=c1c2cc(O)c(O)cc2oc2cc(O)c(C3OC(CO)C(O)C(O)C3O)c(O)c12` (stereo not shown) [Mangiferin], the “dissolves in 30 minutes” value ([1]; 5 mg powder in 50 ml distilled water) was “can't be dissolved”, the solubility at 30 min ([1]; water, thermodynamic from solid) was less than 100 µg/mL and the AUC(0-inf) [2] was 31100 ng·h/mL. The Cmax [2] was 14800 ± 500 ng/mL, the T1/2β [2] was 45.7 ± 8.3 min and the “improvement of GLU, TG, FFA, INS, Glucose infusion rate in diabetic rats” value ([3]; 20 mg/kg orally for 8 weeks) was “does not significantly improve”. For the same compound, the Glucose infusion rate ([3]; 20 mg/kg orally for 8 weeks) was 15.75 ± 3.69 mg/kg · min, the Glucose infusion rate ([3]; 40 mg/kg orally for 8 weeks) was 18.32 ± 3.89 mg/kg · min and the Glucose infusion rate ([3]; 80 mg/kg orally for 8 weeks) was 23.65 ± 3.67 mg/kg · min. The FFA ([3]; 20 mg/kg orally for 8 weeks) was 1.79 ± 0.24 µmol/L, the GLU ([3]; 20 mg/kg orally for 8 weeks) was 10.56 ± 0.38 mmol/L and the INS ([3]; 20 mg/kg orally for 8 weeks) was 33.42 ± 3.79 μ IU/ml. It also gave a TG ([3]; 20 mg/kg orally for 8 weeks) of 3.42 ± 0.41 mmol/L, an FFA ([3]; 40 mg/kg orally for 8 weeks) of 1.56 ± 0.19 µmol/L and a GLU ([3]; 40 mg/kg orally for 8 weeks) of 8.45 ± 0.23 mmol/L. It also gave an INS ([3]; 40 mg/kg orally for 8 weeks) of 28.13 ± 3.74 μ IU/ml, a TG ([3]; 40 mg/kg orally for 8 weeks) of 2.82 ± 0.22 mmol/L and an FFA ([3]; 80 mg/kg orally for 8 weeks) of 1.29 ± 0.34 µmol/L. It also gave a GLU ([3]; 80 mg/kg orally for 8 weeks) of 7.05 ± 0.44 mmol/L, an INS ([3]; 80 mg/kg orally for 8 weeks) of 24.35 ± 3.46 μ IU/ml and a TG ([3]; 80 mg/kg orally for 8 weeks) of 1.82 ± 0.32 mmol/L. The GLU ([4]; 20 mg/kg orally for 30 days) was 19.65 ± 5.07 mmol/L, the HDL ([4]; 20 mg/kg orally for 30 days) was 0.68 ± 0.12 mmol/L and the INS ([4]; 20 mg/kg orally for 30 days) was 26.94 ± 4.89 μ IU/ml. The LDL ([4]; 20 mg/kg orally for 30 days) was 1.56 ± 0.26 mmol/L, the TC ([4]; 20 mg/kg orally for 30 days) was 2.54 ± 0.28 mmol/L and the TG ([4]; 20 mg/kg orally for 30 days) was 1.69 ± 0.31 mmol/L. The “improvement of GLU, TC, TG, HDL and LDL and INS in diabetic GK rats” value ([4]; 20 mg/kg orally for 30 days) was “does not significantly improve”, the GLU ([4]; 40 mg/kg orally for 30 days) was 20.33 ± 4.09 mmol/L and the HDL ([4]; 40 mg/kg orally for 30 days) was 0.75 ± 0.13 mmol/L. It also gave an INS ([4]; 40 mg/kg orally for 30 days) of 24.44 ± 1.91 μ IU/ml, an LDL ([4]; 40 mg/kg orally for 30 days) of 1.33 ± 0.41 mmol/L and a TC ([4]; 40 mg/kg orally for 30 days) of 2.50 ± 0.45 mmol/L. The TG ([4]; 40 mg/kg orally for 30 days) was 1.61 ± 0.22 mmol/L, the “improvement of TG, HDL and LDL in diabetic GK rats” value ([4]; 40 mg/kg orally for 30 days) was “improves” and the GLU ([4]; 80 mg/kg orally for 30 days) was 20.57 ± 4.13 mmol/L. For the same compound, the HDL ([4]; 80 mg/kg orally for 30 days) was 0.78 ± 0.11 mmol/L, the INS ([4]; 80 mg/kg orally for 30 days) was 16.68 ± 1.76 μ IU/ml and the LDL ([4]; 80 mg/kg orally for 30 days) was 1.30 ± 0.38 mmol/L. For the same compound, the TC ([4]; 80 mg/kg orally for 30 days) was 2.45 ± 0.31 mmol/L and the TG ([4]; 80 mg/kg orally for 30 days) was 1.59 ± 0.16 mmol/L.

With `CN(CCOc1ccc(CC2SC(=O)NC2=O)cc1)c1ccccn1` (stereo not shown) [Rosiglitazone, Rosiglitazone Hydrochloride] the Glucose infusion rate ([3]; 3 mg/kg orally for 8 weeks) was 24.75 ± 3.69 mg/kg · min, the FFA ([3]; 3 mg/kg orally for 8 weeks) was 1.25 ± 0.13 µmol/L and the GLU ([3]; 3 mg/kg orally for 8 weeks) was 7.49 ± 2.18 mmol/L. It also gave an INS ([3]; 3 mg/kg orally for 8 weeks) of 19.87 ± 4.21 μ IU/ml, a TG ([3]; 3 mg/kg orally for 8 weeks) of 1.44 ± 0.16 mmol/L and a GLU ([4]; 3 mg/kg orally for 30 days) of 24.38 ± 2.26 mmol/L. For the same compound, the HDL ([4]; 3 mg/kg orally for 30 days) was 0.78 ± 0.07 mmol/L, the INS ([4]; 3 mg/kg orally for 30 days) was 17.58 ± 9.80 μ IU/ml and the LDL ([4]; 3 mg/kg orally for 30 days) was 1.37 ± 0.19 mmol/L. It also gave a TC ([4]; 3 mg/kg orally for 30 days) of 2.40 ± 0.17 mmol/L and a TG ([4]; 3 mg/kg orally for 30 days) of 1.48 ± 0.12 mmol/L.
